Experiment: Dissolution, USP <711> Apparatus 2 paddle method at 50 rpm
Assay type: physicochemical
Settings: 500 ml 0.01 N HCl or 50 mM phosphate buffer (pH 6.8), 0.5% sodium lauryl sulfate, paddle 50 rpm
Protocol: The dissolution characteristics of the spray-dried formulation prepared in Example 2 above were measured by suspending the formulation in 500 ml 0.01 N HCl or 50 mM phosphate buffer (pH 6.8), 0.5% sodium lauryl sulfate, and measuring dissolution by the USP <711> Apparatus 2 (paddle method) at 50 rpm. As a control, particles of crystalline active ingredient N-(3-(2-(6-amino-4-(trifluoromethyl)pyridin-3-yl)-4-morpholinopyrido[3,2-d]pyrimidin-6-yl)-2-fluorophenyl)-3-fluoropropane-1-sulfonamide (as prepared in Example 7 below) was suspended in either 500 ml 0.01 N HCl or 50 mM phosphate buffer (pH 6.8), 0.5% sodium lauryl sulfate and dissolution measured by the same method.

With `Nc1cc(C(F)(F)F)c(-c2nc(N3CCOCC3)c3nc(-c4cccc(NS(=O)(=O)CCCF)c4F)ccc3n2)cn1` [crystalline active ingredient, N-(3-(2-(6-amino-4-(trifluoromethyl)pyridin-3-yl)-4-morpholinopyrido[3,2-d]pyrimidin-6-yl)-2-fluorophenyl)-3-fluoropropane-1-sulfonamide] the “dissolution state after 60 minutes” value was “still not fully dissolved”.
